Patent US20250129041A1, “MOLECULAR GLUE AND USES THEREOF” (ASTROGEN, INC., priority 2023, published 2025)

What was measured:
TA98 and TA100 strains = conditions: positive controls
Description: (§1) First, TA98 and TA 100 strains, which detect frameshift mutations and point mutations, respectively, were cultured. Then, AST-DT-218 was dissolved in a solvent and diluted to various concentrations (20.5 μg/mL, 61.7 μg/mL 185.1 μg/mL, […], 1666.6 μg/mL, and 5000 μg/mL) to prepare an […] (a metabolic activation system; concentration: 30%) including liver enzyme extracts and supplements. Into a histidine-deficient medium at different concentrations of AST-DT-218, (i) the TA98 strain was inoculated without the […] (TA98−S9), (ii) the TA98 strain was inoculated by mixing it with the […] (TA98+S9), (iii) the TA100 strain was inoculated without the […] (TA100−S9), and (iv) the TA100 strain was inoculated by mixing it with the S9 mixture (TA100+S9). As a solvent control, which is a negative control, only the solvent was inoculated into a histidine-deficient medium, and only a pure solvent was used in the absence of any compound. […] After culturing for 48 to 72 hours in each medium, the number of colonies generated was counted to calculate the mutation rate, and the mutagenic effect was compared depending on the presence or absence of the S9 mixture to analyze the effect on metabolic activation.

CRBN proteins = CRBN proteins (Homo sapiens (Human), UniProt Q96SW2); experiment: CRBN affinity test; type: binding; conditions: purified CRBN proteins expressed in E. coli
Sequence of CRBN proteins (Q96SW2 whole entry): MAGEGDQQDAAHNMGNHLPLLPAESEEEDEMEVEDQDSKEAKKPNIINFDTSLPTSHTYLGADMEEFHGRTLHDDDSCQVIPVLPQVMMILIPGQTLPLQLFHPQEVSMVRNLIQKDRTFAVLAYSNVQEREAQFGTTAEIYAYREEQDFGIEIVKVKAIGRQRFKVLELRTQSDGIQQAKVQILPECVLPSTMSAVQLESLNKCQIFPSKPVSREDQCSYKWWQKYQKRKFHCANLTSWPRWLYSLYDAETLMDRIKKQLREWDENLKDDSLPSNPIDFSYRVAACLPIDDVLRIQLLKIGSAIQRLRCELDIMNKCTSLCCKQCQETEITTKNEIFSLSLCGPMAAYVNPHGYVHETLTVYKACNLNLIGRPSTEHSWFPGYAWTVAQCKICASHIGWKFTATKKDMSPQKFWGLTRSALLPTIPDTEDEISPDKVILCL
Description: First, CRBN proteins were expressed in E. coli and purified, and then the purified CRBN proteins were dissolved in a buffer solution (PBS). […] After the mixture was sufficiently mixed and reacted, the binding strength at each concentration was measured to collect data, and a binding curve was created therefrom (see FIG. 13), and the KD (equilibrium dissociation constant) values were derived therefrom (see Table 9 and FIG. 14).

TA100 strain = system: TA100 strain
Description: as §1

TA98 strain = system: TA98 strain
Description: as §1

hERG channel [1] = biological target: T1, hERG channel (Homo sapiens (Human), UniProt Q12809); experiment: hERG-related cardiotoxicity test using automated patch clamp; type: cell-based; conditions: hERG channel-expressing CHO cell line
T1 sequence (Q12809 whole entry): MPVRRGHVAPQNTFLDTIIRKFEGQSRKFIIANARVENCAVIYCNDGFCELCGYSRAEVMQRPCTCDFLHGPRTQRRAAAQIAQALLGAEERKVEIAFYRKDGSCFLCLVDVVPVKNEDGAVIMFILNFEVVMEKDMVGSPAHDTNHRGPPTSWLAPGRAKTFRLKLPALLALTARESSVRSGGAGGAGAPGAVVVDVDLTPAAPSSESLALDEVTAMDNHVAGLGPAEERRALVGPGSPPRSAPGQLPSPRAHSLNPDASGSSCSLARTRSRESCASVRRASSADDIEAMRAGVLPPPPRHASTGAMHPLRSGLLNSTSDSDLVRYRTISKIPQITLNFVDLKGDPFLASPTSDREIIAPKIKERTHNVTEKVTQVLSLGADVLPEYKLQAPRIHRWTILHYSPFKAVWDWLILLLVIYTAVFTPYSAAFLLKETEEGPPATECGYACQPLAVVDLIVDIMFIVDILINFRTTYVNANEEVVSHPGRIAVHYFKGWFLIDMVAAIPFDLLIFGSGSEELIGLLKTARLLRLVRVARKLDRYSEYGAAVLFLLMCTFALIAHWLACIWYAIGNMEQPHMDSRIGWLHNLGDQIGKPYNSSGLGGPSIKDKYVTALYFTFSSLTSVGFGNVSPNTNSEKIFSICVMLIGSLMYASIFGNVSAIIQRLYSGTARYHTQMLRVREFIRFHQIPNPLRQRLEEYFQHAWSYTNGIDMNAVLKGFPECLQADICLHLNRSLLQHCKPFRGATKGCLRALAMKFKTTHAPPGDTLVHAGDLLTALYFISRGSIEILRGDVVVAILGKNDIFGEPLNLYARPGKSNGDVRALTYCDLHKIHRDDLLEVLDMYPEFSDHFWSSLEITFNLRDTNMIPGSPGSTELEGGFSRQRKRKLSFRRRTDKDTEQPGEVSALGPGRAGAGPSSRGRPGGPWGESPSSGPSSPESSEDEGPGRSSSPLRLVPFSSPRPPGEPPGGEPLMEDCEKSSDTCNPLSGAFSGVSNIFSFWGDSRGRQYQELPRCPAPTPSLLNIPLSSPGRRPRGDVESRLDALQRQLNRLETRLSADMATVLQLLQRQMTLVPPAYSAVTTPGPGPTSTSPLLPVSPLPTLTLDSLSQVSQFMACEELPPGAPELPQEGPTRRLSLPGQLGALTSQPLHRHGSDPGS
Description: In order to evaluate the inhibitory effect of AST-DT-218 on the hERG channel and determine its potential to induce cardiotoxicity, a hERG-related cardiotoxicity test using an automated patch clamp was performed. First, a hERG channel-expressing cell line (CHO) was cultured, and AST-DT-218 was dissolved in a solvent (DMSO) and diluted to a concentration (1 μM). Cells were mounted on a patch-clamp device, and the electrical activity of hERG channels was recorded by measuring voltage-dependent currents. The inhibitory effect was calculated as the current reduction ratio, and the IC50 value was derived by constructing a concentration-response curve.

hERG channel [2] = biological target: T1, hERG channel; experiment: hERG ligand binding assay; conditions: membranes of hERG channel-expressing HEK293 cell line
Description: Additionally, a ligand binding assay was performed to measure the affinity of AST-DT-218 that binds to the hERG channel. First, a hERG channel-expressing cell line (HEK293) was cultured, and then the cells were centrifuged to extract the cell membrane, and membrane proteins were prepared using a cell lysis reagent. A labeled hERG ligand was prepared and AST-DT-218 was dissolved in a solvent (DMSO) and diluted to a concentration (1 μM). After dispensing the cell membrane proteins into a 96-well plate or appropriate experimental equipment, competitive binding experiments were performed by adding AST-DT-218 at various concentrations to each well and incubated for 1 to 2 hours. After completion of the binding, the unbound ligands were washed using a recovery solution to separate the same, the extent of ligand binding was measured using a radiation detection device or fluorescence reader, and the signal intensities were analyzed to calculate the ligand binding inhibition ratio. The degree of binding inhibition according to the concentration of AST-DT-218 was plotted to derive the IC50 value.

[3] = Single dose toxicity study; type: in vivo; conditions: rats
Description: The toxicity of AST-DT-218 at a single dose was evaluated. First, healthy adult male and female rats were prepared and then fasted for 12 hours before the experiment. Solutions were prepared for each dose group (0 mg/kg, 500 mg/kg, 1,000 mg/kg, and 2,000 mg/kg), and the final solution volume was set at 40 mL/kg.
For […] to 15 days after administration, clinical symptoms (e.g., colored stool, hairloss, etc.), changes in weight, changes in food consumption, and changes in organ weight were observed, and ophthalmic examinations were performed and autopsies were performed.

[4] = Maximum tolerated dose (MTD) test; type: in vivo; conditions: mice, daily injection day 1 to day 5, highest dose 20 mg/kg
Description: The in vivo maximum tolerated dose (MTD) of AST-DT-218 was evaluated to determine the highest dose at which AST-DT-218 could be safely administered to experimental animals. First, the compound AST-DT-218 and the preparation solvent to be used in the experiment were prepared. The solvent was a mixture of 5% Tween 80, 40% PEG400, 10% DMSO, and 45% DPBS, and AST-DT-218 was prepared according to each dose as shown in Table 6 below. Mice (n=5) to be used in the experiment were prepared and divided into five groups to perform the experiment. The control group was injected with only 0 mg/kg of the solvent, and the remaining groups were injected with the AST-DT-218 solution at 2.5 mg/kg, 5 mg/kg, 10 mg/kg, and 20 mg/kg, respectively, and the injection amount was set to 0.1 mL for a 20 g mouse.
From day 1 to day 5, the injections were administered at the same time daily, and the changes in weight and abnormal behaviors of the mice were observed and data were collected during the experiment.

Huh7 [5] = experiment: HCC cell survival by cell nuclear staining, 24 hours, Huh7; type: cell-based; conditions: Homo sapiens, Huh-7
Description: (§2) An indication expansion experiment was performed to evaluate the potential of AST-DT-218 for treating hepatocellular carcinoma (HCC). First, HCC cell lines (Huh7, Hep3B, SNU449, and SNU475) were prepared, and AST-DT-218 and Sorafenib were at the highest concentration of 50 μM, serially diluted by half starting therefrom, thereby preparing 10 concentrations (50 μM, 25 μM, 12.5 μM, etc.). HCC cell lines (Huh7, Hep3B, SNU449, SNU475) were seeded into 96-well plates, in which each well was treated with AST-DT-218 and Sorafenib solutions, and the cells were cultured in an incubator for 24 hours. Then, the cell survival at each concentration was evaluated by measuring the cell count using cell nuclear staining, and a concentration-response curve of cell survival was created based on the data, and the IC50 value was derived.

Hep3B [6] = experiment: HCC cell survival by cell nuclear staining, 24 hours, Hep3B; type: cell-based; conditions: Homo sapiens
Description: as §2

SNU449 = experiment: HCC cell survival by cell nuclear staining, 24 hours, SNU449; type: cell-based; conditions: Homo sapiens, SNU-449
Description: as §2

SNU475 = experiment: HCC cell survival by cell nuclear staining, 24 hours, SNU475; type: cell-based; conditions: Homo sapiens, SNU-475
Description: as §2

Huh7 [7] = experiment: Dose response curve, cell survival, 48 hours, Huh7; type: cell-based; conditions: Homo sapiens, Huh-7, Hepatocellular Carcinoma, read-out: IC50 of AST-DT-218, Huh7
Description: (§3) A DRC was created to determine whether AST-DT-218 is effective in killing various cancer cells. First, hepatoma cell lines (Huh7 and Hep3B), non-small cell lung cancer cell lines (NCI-H460 and NCI-H1299), pancreatic cancer cell lines (PANC-1 and Mia-Paca-2), rectal cancer cell lines (HT29 and HCT116), a gastric adenocarcinoma cell line (AGS), a malignant melanoma cell line (A375), and an adenocarcinoma cell line (MDA-MB-231) were prepared. Each cell line was cultured in a flask, and the cells which reached the logarithmic growth phase were prepared, washed with PBS, harvested with trypsin, centrifuged to adjust the cell density, and then resuspended in an appropriate culture medium, and plated into 96-well plates. After culturing until the cells attached to the plates and stabilized, AST-DT-218 and controls (lenalidomide and pomalidomide) were prepared and diluted to various concentrations (10-point by diluting by half from the highest concentration of 50 μM). […] After completion of the culture, cell survival was assessed using a cell counting method through cell nuclear staining. Data were collected by measuring cell survival at each concentration, and then DRC was created (see FIGS. 5 to 12) and IC50 values were calculated (see Table 8).

Hep3B [8] = experiment: Dose response curve, cell survival, 48 hours, Hep3B; type: cell-based; conditions: Homo sapiens, Hepatocellular Carcinoma, read-out: IC50 of AST-DT-218, Hep3B
Description: as §3

NCI-H460 = experiment: Dose response curve, cell survival, 48 hours, NCI-H460; type: cell-based; conditions: Homo sapiens, Non-Small Cell Lung Cancer, read-out: IC50 of AST-DT-218, NCI-H460
Description: as §3

NCI-H1299 = experiment: Dose response curve, cell survival, 48 hours, NCI-H1299; type: cell-based; conditions: Homo sapiens, Non-Small Cell Lung Cancer, read-out: IC50 of AST-DT-218, NCI-H1299
Description: as §3

PANC-1 = experiment: Dose response curve, cell survival, 48 hours, PANC-1; type: cell-based; conditions: Homo sapiens, Pancreatic Carcinoma, read-out: IC50 of AST-DT-218, PANC-1
Description: as §3

Mia-Paca-2 = experiment: Dose response curve, cell survival, 48 hours, Mia-Paca-2; type: cell-based; conditions: Homo sapiens, Pancreatic Carcinoma, read-out: IC50 of AST-DT-218, Mia-Paca-2
Description: as §3

HT29 = experiment: Dose response curve, cell survival, 48 hours, HT29; type: cell-based; conditions: Homo sapiens, HT-29, Colorectal Carcinoma, read-out: IC50 of AST-DT-218, HT29
Description: as §3

HCT116 = experiment: Dose response curve, cell survival, 48 hours, HCT116; type: cell-based; conditions: Homo sapiens, HCT-116, Colorectal Carcinoma, read-out: IC50 of AST-DT-218, HCT116
Description: as §3

AGS = experiment: Dose response curve, cell survival, 48 hours, AGS; type: cell-based; conditions: Homo sapiens, Gastric Adenocarcinoma, read-out: IC50 of AST-DT-218, AGS
Description: as §3

A375 = experiment: Dose response curve, cell survival, 48 hours, A375; type: cell-based; conditions: Homo sapiens, A-375, Malignant Melanoma, read-out: IC50 of AST-DT-218, A375
Description: as §3

MDA-MB-231 = experiment: Dose response curve, cell survival, 48 hours, MDA-MB-231; type: cell-based; conditions: Homo sapiens, Adenocarcinoma, read-out: IC50 of AST-DT-218, MDA-MB-231
Description: as §3

For `O=[N+]([O-])c1ccc2c(c1)Cc1ccccc1-2` [Example 2-NF, 2-nitrofluorene], which “number of mutant colonies” value (TA98 and TA100 strains) is on record?
Its value is “significant increase”.

Which Kd (CRBN proteins) does the source give for `CCCC(C)Nc1cccc2c1C(=O)N(C1CCC(=O)NC1=O)C2=O` (stereo in doubt) [AST-DT-135, 2-(2,6-dioxopiperidin-3-yl)-4-(((S)-pentan-2-yl)amino)isoindoline-1,3-dione] here?
Its Kd is 29 nM.

With `C[C@H](CO)Nc1cccc2c1C(=O)N(C1CCC(=O)NC1=O)C2=O` (stereo partly drawn) [AST-DT-220, 2-(2,6-dioxopiperidin-3-yl)-4-(((R)-1-hydroxypropan-2-yl)amino)isoindoline-1,3-dione] as the compound, how does the Kd (CRBN proteins) read?
Its Kd is 52 nM.

Which results are given for `COc1ccc([C@@H](C)Nc2cccc3c2C(=O)N(C2CCC(=O)NC2=O)C3=O)cc1` (stereo partly drawn) [AST-DT-218, 2-(2,6-dioxopiperidin-3-yl)-4-(((R)-1-(4-methoxyphenyl)ethyl)amino)isoindoline-1,3-dione]?
number of mutant colonies (TA100 strain; TA100, regardless of presence or absence of S9 mixture): no significant increase; Mutagenic Data Points w/ S9 (TA100 strain; TA100, test conc. 20.5-5,000 μg/mL, with S9): No; Mutagenic Data Points w/o S9 (TA100 strain; TA100, test conc. 20.5-5,000 μg/mL, without S9): No; number of mutant colonies (TA98 strain; TA98, regardless of presence or absence of S9 mixture): no significant increase; Mutagenic Data Points w/ S9 (TA98 strain; TA98, test conc. 20.5-5,000 μg/mL, with S9): No; Mutagenic Data Points w/o S9 (TA98 strain; TA98, test conc. 20.5-5,000 μg/mL, without S9): No; possibility of causing cardiotoxicity (hERG patch clamp) (hERG channel [1]): low possibility of causing cardiotoxicity; possibility of causing cardiotoxicity (hERG ligand binding) (hERG channel [2]): low possibility of causing cardiotoxicity; changes in clinical symptoms, body weight, food consumption, ophthalmological examination, organ weights, and autopsies ([3]; single oral dose up to 2,000 mg/kg, 15 days observation): no toxicologically significant changes; Clinical Signs ([3]; single p.o. dose 500 mg/kg, all animals, day 2): colored stool; Clinical Signs ([3]; single p.o. dose 1,000 mg/kg, all animals, day 2): colored stool; Clinical Signs ([3]; single p.o. dose 2,000 mg/kg, all animals, day 2): colored stool; Clinical Signs ([3]; single p.o. dose 2,000 mg/kg, animal #19, day 14-15): loss of fur; Clinical Signs ([3]; single p.o. dose 2,000 mg/kg, animal #40, day 3): colored stool; Clinical Signs ([3]; single p.o. dose 2,000 mg/kg, animals #18 to #20, day 3): colored stool; weight loss or abnormal behavior [4]: no weight loss or abnormal behavior; IC50 (Huh7 [5]): 750 nM; IC50 (Hep3B [6]): 378 nM; IC50 (SNU449): 155 nM; IC50 (SNU475): 1450 nM; IC50 (Huh7 [7]): 693 nM; IC50 (Hep3B [8]): 882 nM; IC50 (NCI-H460): 242 nM; IC50 (NCI-H1299): 390 nM; IC50 (PANC-1): 674 nM; IC50 (Mia-Paca-2): 292 nM; IC50 (HT29): 340 nM; IC50 (HCT116): 187 nM; IC50 (AGS): 254 nM; IC50 (A375): 227 nM; IC50 (MDA-MB-231): 636 nM; Kd (CRBN proteins): 16 nM

For `CNC(=O)c1cc(Oc2ccc(NC(=O)Nc3ccc(Cl)c(C(F)(F)F)c3)cc2)ccn1` [Sorafenib, reference compound], which IC50 (Huh7 [5]) is on record?
Its IC50 is 4370 nM.

And the IC50 (Hep3B [6])?
The IC50 was 5680 nM.

And the IC50 (SNU449)?
The IC50 was 11300 nM.

For `Nc1ccc2cc3ccccc3cc2c1` [Example 2-AA, 2-aminoanthracene], which “number of mutant colonies” value (TA98 and TA100 strains) is on record?
The value was “significant increase”.
